Activity calls are given as the source filed them. The calls are words filed in the database; no cut-off is given here.
Key:
LOX IMVI [1] = experiment: Cytotoxicity against human LOXIMVI cells assessed as cell growth at 0.01 uM after 48 hrs by sulforhodamine B assay relative to control; format: functional; details: read-out: Activity
CAKI-1 [2] = experiment: Cytotoxicity against human Caki1 cells assessed as cell growth at 10 uM after 48 hrs by sulforhodamine B assay relative to control; format: functional; details: CAKI-1, 48 h, read-out: Activity
SK-MEL-2 [3] = experiment: Cytotoxicity against human SK-MEL-2 cells assessed as cell growth at 0.01 uM after 48 hrs by sulforhodamine B assay relative to control; format: functional; details: SK-MEL-2, 48 h, read-out: Activity
CAKI-1 [4] = experiment: Cytotoxicity against human Caki1 cells assessed as cell growth at 1 uM after 48 hrs by sulforhodamine B assay relative to control; format: functional; details: CAKI-1, 48 h, read-out: Activity
SK-MEL-2 [5] = experiment: Cytotoxicity against human SK-MEL-2 cells assessed as cell growth at 1 uM after 48 hrs by sulforhodamine B assay relative to control; format: functional; details: SK-MEL-2, 48 h, read-out: Activity
CAKI-1 [6] = experiment: Cytotoxicity against human Caki1 cells assessed as cell growth at 100 uM after 48 hrs by sulforhodamine B assay relative to control; format: functional; details: CAKI-1, 48 h, read-out: Activity
HOP-92 [7] = experiment: Cytotoxicity against human HOP92 cells assessed as growth inhibition after 48 hrs by sulforhodamine B assay; format: functional; details: HOP-92, 48 h; for CC50: read-out: LC50 (the source's name)
MCF7 [8] = experiment: Cell cycle arrest in human MCF7 cells assessed as accumulation at G2/M phase at 2 uM after 24 hrs by flow cytometric analysis (reference value: 2.35%); format: functional
CAKI-1 [9] = experiment: Cytotoxicity against human Caki1 cells assessed as cell growth at 0.01 uM after 48 hrs by sulforhodamine B assay relative to control; format: functional; details: CAKI-1, 48 h, read-out: Activity
LOX IMVI [10] = experiment: Cytotoxicity against human LOXIMVI cells assessed as cell growth at 1 uM after 48 hrs by sulforhodamine B assay relative to control; format: functional; details: read-out: Activity
LOX IMVI [11] = experiment: Cytotoxicity against human LOXIMVI cells assessed as cell growth at 100 uM after 48 hrs by sulforhodamine B assay relative to control; format: functional; details: read-out: Activity
HOP-92 [12] = experiment: Cytotoxicity against human HOP92 cells assessed as cell growth at 0.1 uM after 48 hrs by sulforhodamine B assay relative to control; format: functional; details: HOP-92, 48 h, read-out: Activity
MCF7 [13] = experiment: Downregulation of PI3K mRNA expression in human MCF7 cells at 2 uM after 48 hrs by qRT-PCR analysis; format: functional, cell-based
CAKI-1 [14] = experiment: Cytotoxicity against human Caki1 cells assessed as growth inhibition after 48 hrs by sulforhodamine B assay; format: functional; details: CAKI-1, 48 h
MCF7 [15] = experiment: Upregulation of TP53 mRNA expression in human MCF7 cells at 2 uM after 48 hrs by qRT-PCR analysis; format: functional, cell-based
MCF7 [16] = experiment: Downregulation of Bcl-2 mRNA expression in human MCF7 cells at 2 uM after 48 hrs by qRT-PCR analysis; format: functional, cell-based
SK-MEL-2 [17] = experiment: Cytotoxicity against human SK-MEL-2 cells assessed as cell growth at 100 uM after 48 hrs by sulforhodamine B assay relative to control; format: functional; details: SK-MEL-2, 48 h, read-out: Activity
MCF7 [18] = experiment: Cell cycle arrest in human MCF7 cells assessed as accumulation at G0/G1 phase at 2 uM after 24 hrs by flow cytometric analysis (reference value: 18.4%); format: functional
MCF7 [19] = experiment: Downregulation of mTOR protein expression in human MCF7 cells at 2 uM after 24 hrs by Western blot analysis; format: functional, cell-based
MCF7 [20] = experiment: Downregulation of Akt protein expression in human MCF7 cells at 2 uM after 48 hrs by Alexa/DAPI staining-based immunofluorescence analysis; format: functional, cell-based
HOP-92 [21] = experiment: Cytotoxicity against human HOP92 cells assessed as cell growth at 10 uM after 48 hrs by sulforhodamine B assay relative to control; format: functional; details: HOP-92, 48 h, read-out: Activity
MCF7 [22] = experiment: Induction of apoptosis in human MCF7 cells assessed as viable cells at 2 uM after 24 hrs by Annexin-V FITC/propidium iodide staining-based FACS analysis (reference value: 93.9%); format: functional; details: MCF7, 24 h, read-out: Activity
HOP-92 [23] = experiment: Cytotoxicity against human HOP92 cells assessed as cell growth at 0.01 uM after 48 hrs by sulforhodamine B assay relative to control; format: functional; details: HOP-92, 48 h, read-out: Activity
LOX IMVI [24] = experiment: Cytotoxicity against human LOXIMVI cells assessed as cell growth at 10 uM after 48 hrs by sulforhodamine B assay relative to control; format: functional; details: read-out: Activity
SK-MEL-2 [25] = experiment: Cytotoxicity against human SK-MEL-2 cells assessed as cell growth at 0.1 uM after 48 hrs by sulforhodamine B assay relative to control; format: functional; details: SK-MEL-2, 48 h, read-out: Activity
HOP-92 [26] = experiment: Cytotoxicity against human HOP92 cells assessed as cell growth at 100 uM after 48 hrs by sulforhodamine B assay relative to control; format: functional; details: HOP-92, 48 h, read-out: Activity
MCF7 [27] = experiment: Upregulation of PTEN protein expression in human MCF7 cells at 2 uM after 24 hrs by Western blot analysis; format: functional, cell-based
HOP-92 [28] = experiment: Cytotoxicity against human HOP92 cells assessed as cell growth at 1 uM after 48 hrs by sulforhodamine B assay relative to control; format: functional; details: HOP-92, 48 h, read-out: Activity
SK-MEL-2 [29] = experiment: Cytotoxicity against human SK-MEL-2 cells assessed as cell growth at 10 uM after 48 hrs by sulforhodamine B assay relative to control; format: functional; details: SK-MEL-2, 48 h, read-out: Activity
LOX IMVI [30] = experiment: Cytotoxicity against human LOXIMVI cells assessed as cell growth at 0.1 uM after 48 hrs by sulforhodamine B assay relative to control; format: functional; details: read-out: Activity
SNB-75 [31] = experiment: Cytotoxicity against human SNB75 cells assessed as cell growth at 100 uM after 48 hrs by sulforhodamine B assay relative to control; format: functional; details: SNB-75, 48 h, read-out: Activity
SNB-75 [32] = experiment: Cytotoxicity against human SNB75 cells assessed as growth inhibition after 48 hrs by sulforhodamine B assay; format: functional; details: SNB-75, 48 h
SF-295 [33] = experiment: Cytotoxicity against human SF295 cells assessed as cell growth at 100 uM after 48 hrs by sulforhodamine B assay relative to control; format: functional; details: SF-295, 48 h, read-out: Activity
SNB-75 [34] = experiment: Cytotoxicity against human SNB75 cells assessed as cell growth at 1 uM after 48 hrs by sulforhodamine B assay relative to control; format: functional; details: SNB-75, 48 h, read-out: Activity
SF-295 [35] = experiment: Cytotoxicity against human SF295 cells assessed as cell growth at 0.1 uM after 48 hrs by sulforhodamine B assay relative to control; format: functional; details: SF-295, 48 h, read-out: Activity
SNB-75 [36] = experiment: Cytotoxicity against human SNB75 cells assessed as cell growth at 0.01 uM after 48 hrs by sulforhodamine B assay relative to control; format: functional; details: SNB-75, 48 h, read-out: Activity
SNB-75 [37] = experiment: Cytotoxicity against human SNB75 cells assessed as cell growth at 10 uM after 48 hrs by sulforhodamine B assay relative to control; format: functional; details: SNB-75, 48 h, read-out: Activity
SF-295 [38] = experiment: Cytotoxicity against human SF295 cells assessed as cell growth at 1 uM after 48 hrs by sulforhodamine B assay relative to control; format: functional; details: SF-295, 48 h, read-out: Activity
SF-295 [39] = experiment: Cytotoxicity against human SF295 cells assessed as cell growth at 0.01 uM after 48 hrs by sulforhodamine B assay relative to control; format: functional; details: SF-295, 48 h, read-out: Activity
SNB-75 [40] = experiment: Cytotoxicity against human SNB75 cells assessed as cell growth at 0.1 uM after 48 hrs by sulforhodamine B assay relative to control; format: functional; details: SNB-75, 48 h, read-out: Activity
SF-295 [41] = experiment: Cytotoxicity against human SF295 cells assessed as growth inhibition after 48 hrs by sulforhodamine B assay; format: functional; details: SF-295, 48 h
SF-295 [42] = experiment: Cytotoxicity against human SF295 cells assessed as cell growth at 10 uM after 48 hrs by sulforhodamine B assay relative to control; format: functional; details: SF-295, 48 h, read-out: Activity

Compound	growth at 0.01 µM (LOX IMVI [1]) [%]	growth at 10 µM (CAKI-1 [2]) [%]	growth at 0.01 µM (SK-MEL-2 [3]) [%]	growth at 1 µM (CAKI-1 [4]) [%]	growth at 1 µM (SK-MEL-2 [5]) [%]	growth at 100 µM (CAKI-1 [6]) [%]	TGI (HOP-92 [7]) [µM]	CC50 (HOP-92 [7]) [µM]	growth at 0.01 µM (CAKI-1 [9]) [%]	growth at 1 µM (LOX IMVI [10]) [%]	growth at 100 µM (LOX IMVI [11]) [%]	growth at 0.1 µM (HOP-92 [12]) [%]	LC50 (CAKI-1 [14]) [µM]	TGI (CAKI-1 [14]) [µM]	growth at 100 µM (SK-MEL-2 [17]) [%]	growth at 10 µM (HOP-92 [21]) [%]	growth at 0.01 µM (HOP-92 [23]) [%]	growth at 10 µM (LOX IMVI [24]) [%]	growth at 0.1 µM (SK-MEL-2 [25]) [%]	growth at 100 µM (HOP-92 [26]) [%]	other results
COc1cc(C(=O)/C=C/c2cc(-c3cc(OC)c(OC)c(OC)c3)n[nH]2)cc(OC)c1OC	102	4	104	82	97	-94	1.02	5.54	91	82	-95	68	35.5	10.9	-96	-67	86	-95	111	-95	Activity (MCF7 [8]): 10.3%; Activity (MCF7 [13]): Active; Activity (MCF7 [15]): Active; Activity (MCF7 [16]): Active; Activity (MCF7 [18]): 16.6%; Activity (MCF7 [19]): Active; Activity (MCF7 [20]): Active; viability at 2 µM (MCF7 [22]): 84.6%; Activity (MCF7 [27]): Active; growth at 1 µM (HOP-92 [28]): 1%; growth at 10 µM (SK-MEL-2 [29]): -63%; growth at 0.1 µM (LOX IMVI [30]): 101%
COc1ccc(C(=O)/C=C/c2cc(-c3ccc4c(c3)OCO4)n[nH]2)cc1OC	100	-51	98	89	107	-65	8.11	62.2	93	97	-78	87	9.84	4.33	-68	-8	85	-62	95	-61	growth at 100 µM (SNB-75 [31]): -100%; LC50 (concentration killing 50% of cells) (SNB-75 [32]): 27.7 µM; TGI (SNB-75 [32]): 7.57 µM; growth at 100 µM (SF-295 [33]): -93%; growth at 1 µM (SNB-75 [34]): 76%; growth at 0.1 µM (SF-295 [35]): 98%; growth at 0.01 µM (SNB-75 [36]): 78%; growth at 10 µM (SNB-75 [37]): -10%; growth at 1 µM (HOP-92 [28]): 79%; growth at 10 µM (SK-MEL-2 [29]): 39%; growth at 0.1 µM (LOX IMVI [30]): 99%; growth at 1 µM (SF-295 [38]): 101%; growth at 0.01 µM (SF-295 [39]): 95%; growth at 0.1 µM (SNB-75 [40]): 76%; LC50 (SF-295 [41]): 22.2 µM; TGI (SF-295 [41]): 6.15 µM; growth at 10 µM (SF-295 [42]): -27%

— ChEMBL document CHEMBL4138123, “Design, synthesis and biological evaluation of novel pyrazolochalcones as potential modulators of PI3K/Akt/mTOR pathway and inducers of apoptosis in breast cancer cells” (Eur J Med Chem, 2017)
